Broadly, the IC50 is the point on the concentration scale where inhibition reaches its midpoint.

Here are results for five compounds from article PMC6743424, “Phenolic acid phenethylesters and their corresponding ketones: Inhibition of 5‐lipoxygenase and stability in human blood and HepaRG cells” (Pharmacology Research & Perspectives, 2019).

For series [1], the target named is T1, 5‐LO (Homo sapiens, UniProt P09917).
T1 sequence (P09917 1-674): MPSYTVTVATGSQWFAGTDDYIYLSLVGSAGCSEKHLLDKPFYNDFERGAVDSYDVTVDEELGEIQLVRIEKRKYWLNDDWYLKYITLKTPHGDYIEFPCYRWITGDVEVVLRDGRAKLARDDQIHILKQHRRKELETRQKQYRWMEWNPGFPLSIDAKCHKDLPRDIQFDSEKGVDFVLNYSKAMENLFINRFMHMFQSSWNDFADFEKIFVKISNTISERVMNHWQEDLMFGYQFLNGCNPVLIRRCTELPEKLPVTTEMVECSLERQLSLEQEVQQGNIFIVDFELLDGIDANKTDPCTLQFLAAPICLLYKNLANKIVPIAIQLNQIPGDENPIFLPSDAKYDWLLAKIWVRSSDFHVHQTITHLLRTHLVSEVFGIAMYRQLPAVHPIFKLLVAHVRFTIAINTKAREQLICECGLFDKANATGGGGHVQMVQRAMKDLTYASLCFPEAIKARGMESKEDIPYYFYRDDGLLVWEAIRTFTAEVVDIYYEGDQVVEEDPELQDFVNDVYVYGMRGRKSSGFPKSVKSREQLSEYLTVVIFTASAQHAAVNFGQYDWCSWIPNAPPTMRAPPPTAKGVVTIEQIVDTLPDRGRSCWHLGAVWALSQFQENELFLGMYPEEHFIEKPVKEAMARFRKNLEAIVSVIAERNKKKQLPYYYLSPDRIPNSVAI
Put plainly: Ex vivo whole blood stimulation with opsonized zymosan, 5‐LO products. The conditions noted are these: 5‐LO product biosynthesis in whole blood, mean (95% confidence interval). Details: endogenous in cells; host or cells: human polymorphonuclear leukocytes isolated from heparinized blood. It counts as cell-based. How it is done: Blood was collected in tubes containing heparin as anticoagulant. Test compounds or their diluent control (DMSO, 0.1%) were added to 1 mL of heparinized blood at the indicated concentrations and incubated for 5 minutes in a water bath at 37°C. Stimulation was initiated with the addition of 125 μL of 40 mg/mL of opsonized zymosan, samples were then gently vortexed and incubated at 37°C for 30 minutes.34 Samples were then centrifuged at 960g for 10 minutes at 4°C, plasma was removed and added to tubes containing 4 volumes of CH3OH:CH3CN (1:1) containing 100 ng/mL of PGB2 as internal standard. Samples were stored overnight at −20°C, and then centrifuged at 3300g for 10 minutes. Samples were then purified on C18 cartridges, were eluted with CH3OH, dried under nitrogen, resuspended in 46% of CH3OH:CH3CN (1:1), and analyzed using RP‐HPLC as described above.

For series [2], the target named is T1, 5‐LO. Put plainly: Biosynthesis of 5‐LO products in thapsigargin‐stimulated human PMNL. It counts as cell-based. Details: endogenous in cells; host or cells: human polymorphonuclear leukocytes isolated from heparinized blood. The conditions noted are these: for Inhibition of LT biosynthesis in human PMNL: 1 μmol/L, 5 min, 1 μmol/L thapsigargin 15 min; for IC50: 5‐LO product biosynthesis in human PMNL, mean (95% confidence interval). How it is done:
Heparinized blood (see Ethics statement) was collected, centrifuged at 200g for 10 minutes to collect plasma, and erythrocytes were sedimented in dextran. PMNL were obtained after centrifugation on a lymphocyte separation medium cushion (density, 1.077 g/mL) (Wisent) at 900 g for 20 minutes, followed by hypotonic lysis to remove residual erythrocytes.33 PMNL were counted and resuspended at 10^7 cells/mL in HBSS supplemented with 1.6 mmol/L CaCl2 and 0.3 U/mL adenosine deaminase (Sigma‐Aldrich). PMNL were preincubated with the test compounds or their diluent (0.1% DMSO) for 5 minutes at 37°C and were then stimulated with 1 µmol/L thapsigargin (Sigma‐Aldrich) for 15 minutes at 37°C.27 Reactions were stopped by adding two volumes of CH3OH:CH3CN (1:1) containing the internal standard PGB2 (100 ng/mL), and samples were processed for RP‐HPLC analysis of 5‐LO products.
(A) The structures of CAPE (2) and its analogues investigated in this study. (B) Isolated human PMNL were incubated in presence of test compounds (1 μmol/L) or their diluent (Control, 0.1% DMSO) for 5 minutes. PMNL were stimulated with 1 μmol/L of thapsigargin for 15 minutes at 37°C. The stimulation was then stopped, and samples were processed for analysis of 5‐LO products using RP‐HPLC. Total 5‐LO products measured represent LTB4, its trans isomers, 20‐OH‐LTB4, 20‐COOH‐LTB4 and 5‐hydroxyeicosatetraenoic acid. Data are expressed as means ± SEM of at least three independent experiments. *Difference from control, as determined using one‐way ANOVA with Dunnett's multiple comparison test (P < .05)

Series [3] is described as follows: Stability of inhibitory activity after incubation in whole blood. It counts as in vitro ADME, human. The conditions noted are these: 3 μmol/L in whole blood up to 240 minutes before zymosan; LTB4. As for the experimental part:
Figure 4 Stability of the test compounds for the inhibition of the biosynthesis of 5‐LO products following incubation in plasma or in whole blood. (A) Test compounds were incubated (30 µmol/L) in human plasma for the indicated times at 37°C. Plasma (50 µL) containing the test compounds was then added to 450 µL of PMNL (10^7 cells/mL) which were then stimulated with 1 μmol/L of thapsigargin for 15 minutes at 37°C. The stimulation was then stopped, samples were processed, and 5‐LO products were measured using RP‐HPLC. (B) Whole blood was incubated in the presence of 3 μmol/L of test compounds or with their diluent (control, DMSO 0.1%) for the indicated times and was then stimulated with opsonized zymosan (4 mg/mL) for 30 minutes at 37°C. Blood was then centrifuged and plasma was collected and added to 1.2 mL of CH3OH:CH3CN (1:1). Samples were processed for analysis using RP‐HPLC for LTB4 quantification. All data are expressed as means ± SEM of at least three independent experiments. *Difference from time = 0, as determined using One‐way ANOVA with Dunnett's multiple comparison test (P < .05)

Details of series [4]: method as in PMID 17394337, PMID 15358316, PMID 19544289. The conditions noted are these: carboxylesterase; cited from earlier work.
For series [5], the target named is T1, 5‐LO. Details: endogenous in cells; host or cells: human polymorphonuclear leukocytes isolated from heparinized blood; method as in PMID 22347509, PMID 28680195. The conditions noted are these: read-out: IC50 of LT biosynthesis in whole blood; cited from earlier work.
On the set-up of series [6]: method as in PMID 17394337, PMID 15358316, PMID 19544289. The conditions noted are these: oral administration to rats; cited from earlier work.

Like-named read-outs stand apart in the source and are kept apart here.

Consider `O=C(/C=C/c1ccc(O)c(O)c1)CCCc1ccccc1` [compound 7], for which, on 5‐LO [1], 2300 nM corresponded to half-maximal inhibition (IC50). Besides, on 5‐LO [2], the “Inhibition of LT biosynthesis in human PMNL” value (“Inhibition of LT biosynthesis” for short) is recorded as “near complete inhibition” and half-maximal inhibition (IC50) was put at 520 nM. The “Stability of inhibitory activity after incubation in whole blood” value (from here on “Stability of inhibitory activity”) in series [3] is reported as “complete loss of inhibitory activity after 240 minutes”.

With `O=C(/C=C/c1cc(O)ccc1O)OCCc1ccccc1` [compound 5], the half-maximal inhibitory concentration (IC50) against 5‐LO [1] worked out at 1000 nM; against 5‐LO [2] it was 320 nM. In addition, on 5‐LO [2], the “Inhibition of LT biosynthesis” value is “near complete inhibition”.

On to `O=C(/C=C/c1cc(O)ccc1O)CCc1ccccc1` [compound 8], for which the IC50 against 5‐LO [1] was 1150 nM; against 5‐LO [2], 510 nM.

Turning to `O=C(/C=C/c1ccc(O)c(O)c1)OCCc1ccccc1` [CAPE (2), caffeic acid phenethyl ester, reference compound], the IC50 was 3580 nM against 5‐LO [1], 970 nM on 5‐LO [2] and 1800 nM on 5‐LO [5]. Also, the “Stability in rat plasma” value in series [4] is “rapidly hydrolyzed to caffeic acid”. In addition, in series [3], the “Stability of inhibitory activity” value is on record as “complete loss of inhibitory activity after 240 minutes”. Besides, in series [6], the “Major metabolite in urine” value is on record as “caffeic acid”.

`COc1cc(/C=C/C(=O)CCc2ccccc2)cc(OC)c1O` [compound 10, sinapic acid phenethyl ketone] had an IC50 against 5‐LO [1] of 1200 nM. Also, on 5‐LO [2], the “Inhibition of LT biosynthesis” value was “near complete inhibition” and the half-maximal inhibitory concentration (IC50) amounted to 410 nM. The “Stability of inhibitory activity” value in series [3] is listed as “near complete retention of inhibitory activity”.
